Measured values as given in the supplement of paper PMC6045584.
± gives the standard deviation of the averaged measurements.

Experiments:
[1] = compound: C[C@]1(O)C[C@@H](c2nc(-c3ccc4ccc(-c5ccccc5)nc4c3)c3c(N)nccn32)C1 [OSI-906]; assay: surviving fraction relative to DMSO-only wells; higher = less growth inhibition; conditions: exposure time: 5 days
Summary of the method: (§1)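 Tumour cell lines were grown to log phase and seeded at 250–500 cells per well in 384-well plates. They were exposed continuously to inhibitors at 0.5, 1, 5, 10, 50, 100, 500 and 1000 nM for five days, beginning 24 hours after seeding. Surviving fraction is CellTiter-Glo luminescence normalised to the median of DMSO-only wells.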

[2] = compound: COCC[n+]1c2c(n(Cc3cnccn3)c1C)C(=O)c1ccccc1C2=O [YM155]; assay: as above; conditions: exposure time: 5 days
Summary of the method: as §1

| Test System | surviving fraction ([1]; 0.5 nM) | surviving fraction ([1]; 1 nM) | surviving fraction ([1]; 5 nM) | surviving fraction ([1]; 10 nM) | surviving fraction ([1]; 50 nM) | surviving fraction ([1]; 100 nM) | surviving fraction ([1]; 500 nM) | surviving fraction ([1]; 1000 nM) | surviving fraction ([2]; 0.5 nM) | surviving fraction ([2]; 1 nM) | surviving fraction ([2]; 5 nM) | surviving fraction ([2]; 10 nM) | surviving fraction ([2]; 50 nM) | surviving fraction ([2]; 100 nM) | surviving fraction ([2]; 500 nM) | surviving fraction ([2]; 1000 nM) |
| --- | --- | --- | --- | --- | --- | --- | --- | --- | --- | --- | --- | --- | --- | --- | --- | --- |
| ASKA SYNOVIAL | 0.934 ± 0.059 | 0.99 ± 0.057 | 1.01 ± 0.011 | 1.07 ± 0.071 | 1.11 ± 0.13 | 1.12 ± 0.045 | 0.966 ± 0.083 | 0.97 ± 0.029 | 0.87 ± 0.054 | 0.924 ± 0.094 | 0.719 ± 0.039 | 0.375 ± 0.017 | 0.227 ± 0.017 | 0.195 ± 0.017 | 0.194 ± 0.011 | 0.243 ± 0.017 |
| DU4475 BREAST | 0.863 ± 0.18 | 0.825 ± 0.18 | 0.726 ± 0.089 | 0.786 ± 0.12 | 0.785 ± 0.18 | 0.553 ± 0.043 | 0.41 ± 0.024 | 0.36 ± 0.08 | 0.934 ± 0.11 | 0.805 ± 0.044 | 0.839 ± 0.08 | 0.903 ± 0.21 | 0.108 ± 0.025 | 0.0437 ± 0.008 | 0.0273 ± 0.0015 | 0.0337 ± 0.0038 |
| HOS BONE | 0.9287 ± 0.0055 | 0.9223 ± 0.0065 | 0.939 ± 0.019 | 0.911 ± 0.014 | 0.965 ± 0.02 | 0.963 ± 0.013 | 0.901 ± 0.013 | 0.88 ± 0.031 | 0.923 ± 0.0036 | 0.503 ± 0.017 | 0.075 ± 0.0078 | 0.0527 ± 0.0038 | 0.0267 ± 0.00058 | 0.0197 ± 0.00058 | 0.0193 ± 0.00058 | 0.0243 ± 0.00058 |
| CASKI CERVIX | 0.826 ± 0.028 | 0.849 ± 0.029 | 0.814 ± 0.049 | 0.798 ± 0.038 | 0.976 ± 0.067 | 0.965 ± 0.064 | 0.982 ± 0.068 | 0.982 ± 0.051 | 0.914 ± 0.052 | 0.93 ± 0.07 | 0.796 ± 0.056 | 0.538 ± 0.046 | 0.063 ± 0.009 | 0.0337 ± 0.0011 | 0.0223 ± 0.0015 | 0.0267 ± 0.0015 |
| HCC1395 BREAST | 0.851 ± 0.028 | 0.962 ± 0.13 | 0.977 ± 0.095 | 0.949 ± 0.027 | 1.04 ± 0.014 | 1.12 ± 0.13 | 0.847 ± 0.14 | 0.986 ± 0.043 | 0.883 ± 0.23 | 1.07 ± 0.031 | 1.15 ± 0.035 | 1.01 ± 0.056 | 0.733 ± 0.11 | 0.427 ± 0.12 | 0.278 ± 0.079 | 0.239 ± 0.065 |
| LNCAP PROSTATE | 1.12 ± 0.058 | 1.07 ± 0.095 | 1.07 ± 0.036 | 1.11 ± 0.018 | 0.991 ± 0.12 | 1.05 ± 0.1 | 1.04 ± 0.032 | 1.06 ± 0.026 | 0.92 ± 0.085 | 0.943 ± 0.033 | 0.87 ± 0.097 | 0.978 ± 0.1 | 0.227 ± 0.032 | 0.069 ± 0.0044 | 0.0267 ± 0.0055 | 0.0267 ± 0.0015 |
| 143B BONE | 1.02 ± 0.048 | 0.972 ± 0.028 | 1.07 ± 0.071 | 1.04 ± 0.05 | 0.959 ± 0.083 | 0.99 ± 0.011 | 0.9825 ± 0.0078 | 0.989 ± 0.023 | 0.89 ± 0.082 | 0.987 ± 0.027 | 0.431 | 0.246 ± 0.042 | 0.0735 ± 0.0064 | 0.0375 ± 0.0021 | 0.022 ± 0.0014 | 0.0265 ± 0.00071 |
| HMT3552 BREAST | 0.916 ± 0.058 | 0.942 ± 0.017 | 0.988 ± 0.057 | 0.937 ± 0.064 | 1.05 ± 0.05 | 0.954 ± 0.023 | 0.828 ± 0.073 | 0.748 ± 0.035 | 0.983 ± 0.045 | 1.015 ± 0.009 | 1.06 ± 0.015 | 1.05 ± 0.056 | 0.17 ± 0.027 | 0.0797 ± 0.0055 | 0.0473 ± 0.0035 | 0.0537 ± 0.00058 |
| SCC47 HEADNECK | 0.976 ± 0.025 | 0.952 ± 0.046 | 1.04 ± 0.069 | 1.02 ± 0.12 | 1.091 ± 0.0056 | 1.07 ± 0.062 | 1 ± 0.011 | 1.04 ± 0.11 | 1.01 ± 0.13 | 0.998 ± 0.023 | 0.916 ± 0.087 | 0.435 ± 0.069 | 0.0263 ± 0.0025 | 0.021 ± 0.001 | 0.0197 ± 0.00058 | 0.023 ± 0.001 |
| NCIH441 LUNG | 0.976 ± 0.058 | 1 ± 0.033 | 0.993 ± 0.07 | 0.969 ± 0.03 | 1.04 ± 0.034 | 1.03 ± 0.028 | 0.841 ± 0.019 | 0.737 ± 0.048 | 0.991 ± 0.038 | 1.05 ± 0.024 | 0.547 ± 0.064 | 0.284 ± 0.023 | 0.0333 ± 0.0011 | 0.0273 ± 0.00058 | 0.023 ± 0.001 | 0.0267 ± 0.0011 |
| YAMATO SYNOVIAL | 0.866 ± 0.13 | 0.936 ± 0.04 | 0.995 ± 0.069 | 0.986 ± 0.082 | 1.36 ± 0.22 | 1.46 ± 0.13 | 1.17 ± 0.21 | 1.12 ± 0.077 | 0.656 ± 0.066 | 0.874 ± 0.067 | 0.39 ± 0.039 | 0.29 ± 0.027 | 0.229 ± 0.014 | 0.206 ± 0.0017 | 0.191 ± 0.015 | 0.267 ± 0.016 |
| SYO1 SYNOVIAL | 0.795 ± 0.048 | 0.814 ± 0.044 | 0.832 ± 0.023 | 0.824 ± 0.058 | 0.838 ± 0.055 | 0.897 ± 0.033 | 0.897 ± 0.034 | 0.873 ± 0.016 | 0.847 ± 0.01 | 0.967 ± 0.035 | 0.761 ± 0.03 | 0.514 ± 0.012 | 0.0558 ± 0.0015 | 0.0337 ± 0.0012 | 0.0242 ± 0.00051 | 0.0279 ± 0.0021 |
| CCK81 LARGE INTESTINE | 0.782 ± 0.2 | 0.815 ± 0.089 | 0.87 ± 0.051 | 0.784 ± 0.036 | 0.726 ± 0.17 | 0.668 ± 0.13 | 0.414 ± 0.13 | 0.327 ± 0.058 | 0.854 ± 0.1 | 0.82 ± 0.03 | 0.735 ± 0.076 | 0.745 ± 0.021 | 0.674 ± 0.022 | 0.798 ± 0.073 | 0.719 ± 0.036 | 0.801 ± 0.13 |
| SG27 HEADNECK | 1.1 ± 0.12 | 1.08 ± 0.064 | 0.916 ± 0.071 | 0.966 ± 0.059 | 1 ± 0.054 | 0.946 ± 0.044 | 0.807 ± 0.086 | 0.617 ± 0.069 | 1.13 ± 0.13 | 1.05 ± 0.092 | 0.813 ± 0.13 | 0.575 ± 0.066 | 0.105 ± 0.035 | 0.0347 ± 0.0038 | 0.0367 ± 0.02 | 0.048 ± 0.017 |
| SKBR3 BREAST | 0.752 ± 0.012 | 0.765 ± 0.027 | 0.814 ± 0.11 | 0.841 ± 0.0095 | 1.05 ± 0.11 | 0.871 ± 0.11 | 0.786 ± 0.07 | 0.681 ± 0.062 | 0.89 ± 0.03 | 0.849 ± 0.055 | 0.825 ± 0.024 | 0.53 ± 0.071 | 0.0403 ± 0.012 | 0.0253 ± 0.0067 | 0.0247 ± 0.0074 | 0.0243 ± 0.0058 |
| HS578T BREAST | 0.846 ± 0.12 | 0.968 ± 0.16 | 0.865 ± 0.12 | 0.846 ± 0.049 | 1.09 ± 0.13 | 0.931 ± 0.19 | 1.07 ± 0.073 | 1.15 ± 0.18 | 1.03 ± 0.14 | 1.06 ± 0.19 | 0.993 ± 0.19 | 1.06 ± 0.082 | 0.739 ± 0.18 | 0.809 ± 0.066 | 0.274 ± 0.067 | 0.154 ± 0.027 |
| MDAMB436 BREAST | 0.805 ± 0.047 | 0.875 ± 0.055 | 0.887 ± 0.17 | 0.828 ± 0.054 | 0.948 ± 0.11 | 0.89 ± 0.068 | 0.985 ± 0.15 | 0.855 ± 0.12 | 0.932 ± 0.065 | 0.929 ± 0.14 | 0.744 ± 0.13 | 0.556 ± 0.099 | 0.195 ± 0.05 | 0.115 ± 0.031 | 0.0377 ± 0.0074 | 0.0453 ± 0.013 |
| MDAMB134 BREAST | 0.667 ± 0.12 | 0.797 ± 0.014 | 0.679 ± 0.039 | 0.627 ± 0.037 | 0.732 ± 0.016 | 0.72 ± 0.0071 | 0.587 ± 0.016 | 0.616 ± 0.088 | 0.783 ± 0.027 | 0.855 ± 0.052 | 0.759 ± 0.037 | 0.5665 ± 0.005 | 0.775 ± 0.051 | 0.634 ± 0.13 | 0.567 ± 0.0014 | 0.435 ± 0.064 |
| OS25HAL BONE | 0.866 ± 0.066 | 0.892 ± 0.017 | 0.894 ± 0.025 | 0.871 ± 0.017 | 0.854 ± 0.039 | 0.762 ± 0.016 | 0.354 ± 0.015 | 0.256 ± 0.037 | 0.944 ± 0.046 | 0.987 ± 0.022 | 0.295 ± 0.029 | 0.158 ± 0.03 | 0.0603 ± 0.0068 | 0.0357 ± 0.0042 | 0.0193 ± 0.00058 | 0.0267 ± 0.0021 |
| HCC1954 BREAST | 0.33 ± 0.0085 | 0.37 ± 0.012 | 0.384 ± 0.046 | 0.475 ± 0.025 | 0.457 ± 0.063 | 0.384 ± 0.012 | 0.314 ± 0.04 | 0.35 ± 0.023 | 1.08 ± 0.077 | 0.922 ± 0.12 | 0.987 ± 0.051 | 0.467 ± 0.079 | 0.0892 ± 0.02 | 0.035 ± 0.0064 | 0.0335 ± 0.00071 | 0.0333 ± 0.0053 |
| MCF7 BREAST | 0.832 ± 0.042 | 0.85 ± 0.044 | 0.816 ± 0.022 | 0.825 ± 0.056 | 0.831 ± 0.018 | 0.847 ± 0.029 | 0.722 ± 0.036 | 0.661 ± 0.013 | 0.853 ± 0.076 | 0.883 ± 0.018 | 0.679 ± 0.063 | 0.368 ± 0.033 | 0.0596 ± 0.0041 | 0.043 ± 0.003 | 0.0207 ± 0.00033 | 0.0226 ± 0.0014 |
